In patent US11560372B2, “Heterocyclic compounds useful as modulators of acetylcholine receptors” (TAKEDA PHARMACEUTICAL COMPANY LIMITED, priority 2017, dated 2023):

Assays:
[1] = biological target: T1, human M1 receptor (hCHRM1) (Homo sapiens, UniProt P11229); assay: Measurement of M1 receptor positive allosteric modulator (M1PAM) activity, calcium fluorescence in CHO-K1 cells; format: cell-based; settings: for activity (%) at 10 μM: 10 μM test compound, 100% = acetylcholine final concentration 1 μM, 0% = DMSO; for EC50: inflection point of concentration-dependent curve, in the presence of acetylcholine at EC20 concentration (final 0.8-1.0 nM), read-out: IP value
T1 construct: expressed in transfected cells
T1 sequence (P11229 1-460): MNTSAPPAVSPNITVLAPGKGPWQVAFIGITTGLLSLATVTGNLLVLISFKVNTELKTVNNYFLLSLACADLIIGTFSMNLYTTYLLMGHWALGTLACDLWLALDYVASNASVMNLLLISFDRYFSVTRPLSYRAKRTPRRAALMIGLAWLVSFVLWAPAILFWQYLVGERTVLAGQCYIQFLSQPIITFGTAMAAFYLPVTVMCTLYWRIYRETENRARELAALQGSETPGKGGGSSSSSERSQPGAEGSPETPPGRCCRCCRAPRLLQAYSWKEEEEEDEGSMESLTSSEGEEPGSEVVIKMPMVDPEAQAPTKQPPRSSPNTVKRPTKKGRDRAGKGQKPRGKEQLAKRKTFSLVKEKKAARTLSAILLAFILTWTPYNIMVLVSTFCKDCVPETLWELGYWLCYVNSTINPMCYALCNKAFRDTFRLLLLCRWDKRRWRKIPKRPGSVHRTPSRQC
Method: Measurement of M1 Receptor Positive Allosteric Modulator (M1PAM) Activity
The activity of a test compound in the presence of acetylcholine at EC20 concentration (final concentration 0.8-1.0 nM), which affords an action corresponding to about 20% of the maximum activity, was measured as PAM activity. The method is as follows. CHO-K1 cells stably expressing a human M1 receptor (hCHRM1) were plated on a 384-well black clear bottom plate (BD Falcon) at 5,000 cells/well, and cultured in an incubator at 37° C., 5% CO2 for 1 day. The medium in the cell plate was removed, and assay buffer A containing calcium indicator (Recording medium (DOJINDO LABORATORIES), 0.1% BSA (Wako Pure Chemical Industries, Ltd.), 2.5 μg/mL Fluo-4 AM (DOJINDO LABORATORIES), 0.08% Pluronic F127 (DOJINDO LABORATORIES), 1.25 mM probenecid (DOJINDO LABORATORIES)) was added at 30 μL/well. The cells were left standing in the incubator at 37° C., 5% CO2 for 30 min, and further left standing at room temperature for 30 min. A test compound prepared by diluting with assay buffer B (HBSS (Invitrogen), 20 mM HEPES (Invitrogen), 0.1% BSA) containing 3.2-4.0 nM acetylcholine was added at 10 μL/well, and the fluorescence was measured by FDSS/pCELL (Hamamatsu Photonics K.K.) for 1 min every for 1 second. With the definition that the amount of change in the fluorescence on addition of acetylcholine (final concentration 1 μM) is 100% and that on addition of DMSO instead of a test compound is 0%, the activity (%) of the test compound was calculated, and the inflection point in the concentration-dependent curve of the test compound was calculated as IP values.

MDR1 = biological target: T2, MDR1 (Homo sapiens, UniProt P08183); assay: MDR1 membrane permeability test; format: in vitro ADME; settings: pH 7.4, efflux ratio (ER), Papp B to A / A to B, human MDR1-expressing LLC-PK1 cells, read-out: MDR1 substrate screening 1 μM (MDRSUB1)/Ratio (NUMBER)
T2 construct: expressed in transfected cells
T2 sequence (P08183 whole entry): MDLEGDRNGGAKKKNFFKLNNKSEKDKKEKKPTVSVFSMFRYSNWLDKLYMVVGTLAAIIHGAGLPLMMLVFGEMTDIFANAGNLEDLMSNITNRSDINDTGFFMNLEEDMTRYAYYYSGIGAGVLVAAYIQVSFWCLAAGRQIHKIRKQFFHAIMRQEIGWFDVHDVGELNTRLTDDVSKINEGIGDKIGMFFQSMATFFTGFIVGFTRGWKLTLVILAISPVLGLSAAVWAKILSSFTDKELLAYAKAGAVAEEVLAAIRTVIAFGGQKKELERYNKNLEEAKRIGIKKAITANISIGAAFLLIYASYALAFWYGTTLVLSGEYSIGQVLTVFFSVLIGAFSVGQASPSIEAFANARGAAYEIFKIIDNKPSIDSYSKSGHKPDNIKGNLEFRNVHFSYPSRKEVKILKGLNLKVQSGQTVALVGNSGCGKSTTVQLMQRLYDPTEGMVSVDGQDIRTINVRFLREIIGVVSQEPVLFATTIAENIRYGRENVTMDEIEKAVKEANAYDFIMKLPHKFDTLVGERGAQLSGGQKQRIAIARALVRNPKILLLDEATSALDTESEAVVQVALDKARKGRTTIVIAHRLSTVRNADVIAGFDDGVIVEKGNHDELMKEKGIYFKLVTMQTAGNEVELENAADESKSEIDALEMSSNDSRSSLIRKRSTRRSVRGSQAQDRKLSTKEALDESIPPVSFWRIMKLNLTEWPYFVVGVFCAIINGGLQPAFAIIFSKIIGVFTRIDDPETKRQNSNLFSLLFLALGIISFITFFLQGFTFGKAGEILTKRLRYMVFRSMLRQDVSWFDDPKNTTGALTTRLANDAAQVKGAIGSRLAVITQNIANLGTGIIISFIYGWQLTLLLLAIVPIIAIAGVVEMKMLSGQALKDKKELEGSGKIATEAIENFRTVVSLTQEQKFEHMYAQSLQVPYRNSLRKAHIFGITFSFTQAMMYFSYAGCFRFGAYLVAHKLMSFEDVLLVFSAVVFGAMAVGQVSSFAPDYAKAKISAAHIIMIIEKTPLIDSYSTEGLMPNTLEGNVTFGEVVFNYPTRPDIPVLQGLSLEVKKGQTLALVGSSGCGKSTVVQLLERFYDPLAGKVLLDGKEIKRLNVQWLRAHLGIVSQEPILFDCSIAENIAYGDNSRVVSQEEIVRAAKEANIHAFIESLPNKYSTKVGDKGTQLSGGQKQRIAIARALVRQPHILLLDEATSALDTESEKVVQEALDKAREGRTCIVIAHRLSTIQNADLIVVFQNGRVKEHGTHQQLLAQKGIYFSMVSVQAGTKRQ
How it was run: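 Human MDR1-expressing LLC-PK1 cells were grown for 3 days on 96-well polyethylene terephthalate Transwell supports (0.4 μm pores, 0.143 cm^2) seeded at 3.45×10^4 cells/well. After a 30 min preincubation in M199 medium with 10 mmol/L HEPES and 1% BSA (pH 7.4), drug was added apically or basolaterally. After 1 hr at 37° C, the opposite side was sampled and analyzed by LC-MS/MS. Efflux ratio was calculated from Papp B to A versus A to B.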

Row | activity (%) at 10 μM [1] [%] | EC50 [1] [nM] | efflux ratio at 1 hr, 1 μM (MDR1) | SMILES
1 | 107 | 1.9 | 9.5 | Cc1c(Cc2ccc(C(=O)NC[C@@H]3CCCO3)c(F)c2)cc2c(=O)n([C@H]3CCOC[C@@H]3O)cnc2c1C [Example 80, 1,5-anhydro-2,3-dideoxy-3-(6-(3-fluoro-4-(((2S)-tetrahydrofuran-2-ylmethyl)carbamoyl)benzyl)-7,8-dimethyl-4-oxoquinazolin-3 (4H)-yl)-L-threo-pentitol]
2 | 109 | 1.5 | 19 | Cc1c(Cc2ccc(C(=O)NC3CS(=O)(=O)C3)c(F)c2)cc2c(=O)n([C@H]3CCOC[C@@H]3O)cnc2c1C [Example 83, 1,5-anhydro-2,3-dideoxy-3-(6-(4-((1,1-dioxidethietan-3-yl)carbamoyl)-3-fluorobenzyl)-7,8-dimethyl-4-oxoquinazolin-3 (4H)-yl)-L-threo-pentitol]
3 | 106 | 1.9 | 11 | Cc1c(Cc2ccc(C(=O)NCCS(C)(=O)=O)c(F)c2)cc2c(=O)n([C@H]3CCOC[C@@H]3O)cnc2c1C [Example 84, 1,5-anhydro-2,3-dideoxy-3-(6-(3-fluoro-4-((2-(methylsulfonyl)ethyl)-carbamoyl)benzyl)-7,8-dimethyl-4-oxoquinazolin-3 (4H)-yl)-L-threo-pentitol]
4 | 107 | 2.1 | 10 | CCOCCNC(=O)c1ccc(Cc2cc3c(=O)n([C@H]4CCOC[C@@H]4O)cnc3c(C)c2C)cc1F [Example 85, 1,5-anhydro-2,3-dideoxy-3-(6-(4-((2-ethoxyethyl)carbamoyl)-3-fluorobenzyl)-7,8-dimethyl-4-oxoquinazolin-3(4H)-yl)-L-threo-pentitol]
5 | 110 | 3.1 | 7.8 | COCCCNC(=O)c1ccc(Cc2cc3c(=O)n([C@H]4CCOC[C@@H]4O)cnc3c(C)c2C)cc1F [Example 86, 1,5-anhydro-2,3-dideoxy-3-(6-(3-fluoro-4-((3-methoxypropyl)carbamoyl)benzyl)-7,8-dimethyl-4-oxoquinazolin-3(4H)-yl)-L-threo-pentitol]
6 | 111 | 2.3 | 8.7 | Cc1c(Cc2ccc(C(=O)NC3CC3)c(F)c2)cc2c(=O)n([C@H]3CCOC[C@@H]3O)cnc2c1C [Example 87, 1,5-anhydro-3-(6-(4-(cyclopropylcarbamoyl)-3-fluorobenzyl)-7,8-dimethyl-4-oxoquinazolin-3(4H)-yl)-2,3-dideoxy-L-threo-pentitol]
